Measurements as given in publication PMC7187627 (Antimicrobial Agents and Chemotherapy, 2019).
“And” between values parts separate entries of the source, which are not always exact repeats. Equal entries are not always repeated.

Assay: Fecal (stool) pharmacokinetics, multiple-ascending-dose phase 1 study
Format: in vivo, human
Details: for Cstool,ss (concentration in stool) / fe,stool (fe,feces,ss, fraction of dose excreted unchanged in feces over 24 h): day 10, median (minimum, maximum); for fe,stool (fe,feces,ss, fraction of dose excreted unchanged in feces over 24 h): % in Table S4
Method: PK method development, validation, and sample testing for plasma, feces, and urine were performed at KCAS, LLC (Shawnee, KS). Plasma, urine, and fecal concentrations of CRS3123 were determined by means of validated, sensitive, and specific high-performance liquid chromatography/tandem mass spectrometric (HPLC-MS/MS) assays. The lower limits of quantification of CRS3123 in plasma, feces, and urine were 10.0 ng/ml, 60.0 ng/g, and 100.0 ng/ml, respectively. The validated urine PK assay measured total free CSR3123. Since the majority of urinary CRS3123 was excreted as glucuronide conjugates ([32]), an enzymatic cleavage step using glucuronidase was added to the process to convert the glucuronide conjugates to free CRS3123 for the urine analysis.
A selective, accurate, and reproducible analytical method using LC-MS/MS for the quantitation of CRS3123 in human fecal homogenate was linear over a range of 10.0 to 2000 ng/ml (fecal homogenate) or 60.0 to 12,000 ng/g (fecal material). Since 11 fecal samples collected on day 10 exceeded the upper limit, this method was amended by validating it for an extended range of 50.0 to 3,000 μg/ml (fecal homogenate) or […] (fecal material).
(iii) Fecal PK. Twenty-four-hour fecal collection was initiated for all subjects following dose 1 and dose 19 of study drug for measurement of CRS3123 concentrations in feces. A listing of individual PK fecal sample collection start and stop dates/times, fecal weight excreted for each planned collection, CRS3123 concentration in each fecal collection, and amount of CRS3123 excreted in each fecal collection was provided for each fecal collection for each treatment. The bioanalytical method was amended to allow for reanalysis of samples originally outside the linear range.
The following parameters were calculated from the fecal data: amount of unchanged drug excreted in feces (in nanograms) following doses 1 and 2 (Ae,feces) or doses 19 and 20 (Ae,feces,ss) calculated as fecal concentration × fecal weight (in the case of multiple fecal samples, Ae,feces and Ae,feces,ss were determined as the sum of the amount calculated in each fecal sample collected during the 24-h collection period), and fraction of dose excreted unchanged in feces (fe,feces,ss) over a 24-h interval after multiple dosing (expressed as a percentage), calculated as Ae,feces,ss divided by dose 19 plus dose 20.
Due to the 12-h dosing interval utilized in this study, fe,feces,ss was calculated only after multiple dosing on day 10, when CRS3123 would be expected to be at or near steady state. […] A subject listing of individual fecal PK parameters for each treatment was provided for day 1 and for day 10.

O=c1cc(NCCCN[C@@H]2CCOc3c(Br)cc(Br)cc32)[nH]c2ccsc12 [CRS3123]
Cstool,ss (concentration in stool) (200 mg Q12h oral): 2,115 μg/g and 2,115 (966, 4,430) μg/g | fe,stool (fe,feces,ss, fraction of dose excreted unchanged in feces over 24 h) (200 mg Q12h oral): 24.9% and 24.9 (1.9, 68.8) % | Cstool,ss (concentration in stool) (400 mg Q12h oral): 5,390 μg/g and 5,390 (2,920, 8,700) μg/g | fe,stool (fe,feces,ss, fraction of dose excreted unchanged in feces over 24 h) (400 mg Q12h oral): 52.0% | Cstool,ss (concentration in stool) (600 mg Q12h oral): 8,280 μg/g and 8,280 (2,200, 14,000) μg/g | fe,stool (fe,feces,ss, fraction of dose excreted unchanged in feces over 24 h) (600 mg Q12h oral): 43.1% and 43.1 (11.0, 125.8) % | concentrations in feces (all three doses tested): above 1,000 μg/g | fecal concentrations relative to MIC90 (human, in vivo): substantially above the MIC90 value
